{
  "source": "paper PMC4779142",
  "about": "“The fully synthetic MAG-Tn3 therapeutic vaccine containing the tetanus toxoid-derived TT830-844 universal epitope provides anti-tumor immunity” (Cancer Immunology, Immunotherapy : CII, 2016)",
  "tested_on": "CD4+ T cells from C3H/HeN lymph nodes",
  "type": "cell-based, mouse",
  "details": "n = 5, sc 50 μg peptide with CFA, day 11, 50 μg/mL peptide in vitro",
  "data": [
    {"sequence": "RNTDGSTDYGILQINSR [HEL, H-2k-restricted HEL45-61 peptide derived from hen egg lysozyme ([…])]", "values": [
      {"measurement": "TNF-α, IL-2 and IFN-γ production by CD4+ T cells on in vitro stimulation with the peptide", "value": "able to produce TNF-α, IL-2 and IFN-γ"}
    ]}
  ]
}
